Data reported in publication PMC7179653 (Antimicrobial Agents and Chemotherapy, 2020).

Tests used:
[1] = MAD study: safety and tolerability (TEAEs, laboratory safety tests); assay type: in vivo, human; conditions: for TEAE: Catheter site pain / TEAE: Diarrhea / TEAE: Ecchymosis / TEAE: Headache / TEAE: Infusion site extravasation / TEAE: Injection site erythema / TEAE: Injection site extravasation / TEAE: Injection site hemorrhage / TEAE: Injection site injury / TEAE: Injection site pain / TEAE: Medical device site erythema (erythema at the ECG patch sites) / TEAE: Nausea / TEAE: Phlebitis / TEAE: Scratch / TEAE: Vessel puncture site hemorrhage / Withdrawn due to AE / ≥1 TEAE / ≥1 drug-related TEAE / ≥1 serious TEAE: n = 6
Description: The MAD study consisted of three parts (Fig. 1). […] Participants were enrolled in two sequential cohorts (cohort 1, followed by cohort 2). […] Participants were also enrolled in two sequential cohorts (cohort 3, followed by cohort 4). […] A washout period of approximately 24 h between treatments was provided. A sentinel dosing strategy was employed in both studies. […] In all cohorts, escalation to the next dose occurred after a safety review of the previous cohort. In the MAD study, sentinel dosing was performed in part 3, wherein participants were evaluated for safety up to 24 h after administration of the first drug combination (or placebo) on day 3, prior to enrolling additional participants. Safety assessments included monitoring of AEs, laboratory safety tests (hematology, serum chemistry, and urinalysis), 12-lead ECG (discrete recordings and 24-h Holter recording), and vital signs (blood pressure, pulse rate, and body temperature). In the SAD study, safety assessments were performed predose at screening, at day 1, postdose periodically on days 1, 2, and 7 (follow-up), and at early withdrawal, if relevant. […] In the MAD study, safety assessments were done predose at screening, at day 2, postdose periodically on days 1, 2, 4, 7, and 8, on days 13 to 15 (follow-up), and at early withdrawal, if relevant. […] On all other days, a single predose sample was collected for pharmacokinetic evaluation prior to the morning infusion. Blood was collected into lithium-heparin tubes and stored at a nominal –80°C temperature until analysis.

[2] = Intensive ECG monitoring and exposure-response analysis of QTcF; assay type: in vivo, human
Description: Safety assessments included monitoring of AEs, laboratory safety tests (hematology, serum chemistry, and urinalysis), 12-lead ECG (discrete recordings and 24-h Holter recording), and vital signs (blood pressure, pulse rate, and body temperature). In the SAD study, safety assessments were performed predose at screening, at day 1, postdose periodically on days 1, 2, and 7 (follow-up), and at early withdrawal, if relevant. […] In the MAD study, safety assessments were done predose at screening, at day 2, postdose periodically on days 1, 2, 4, 7, and 8, on days 13 to 15 (follow-up), and at early withdrawal, if relevant. […] On all other days, a single predose sample was collected for pharmacokinetic evaluation prior to the morning infusion. Blood was collected into lithium-heparin tubes and stored at a nominal –80°C temperature until analysis.

[3] = Drug-drug interaction analysis nacubactam/meropenem (ANCOVA, geometric mean ratios); assay type: in vivo, human; conditions: nacubactam 2,000 mg single dose, 90% CI
Description: All participants in the active group received a single 2,000-mg dose of both drugs on day 3 and q8h on days 4 to 8, with a final single dose of both drugs on the morning of day 9. A washout period of approximately 24 h between treatments was provided.

[4] = set-up: method as in unpublished data; conditions: ref unpublished data; cited from earlier work
[5] = MAD parts 1 and 2, 8,000 mg (single dose)

## NCCONC(=O)[C@@H]1CC[C@@H]2CN1C(=O)N2OS(=O)(=O)O [Nacubactam]
[1]; MAD monotherapy phase (parts 1 and 2), 13 of the 24 participants
  participants reporting AEs: 54.2%
[1]; MAD monotherapy phase (parts 1 and 2), 24 participants
  total number of AEs: 48
[1]; MAD parts 1 and 2, 1,000 mg
  TEAE: Catheter site pain: 1/1
  TEAE: Diarrhea: 0 n/E
  TEAE: Ecchymosis: 1/1
  TEAE: Headache: 1/1
  TEAE: Infusion site extravasation: 1/1
  TEAE: Injection site erythema: 1/1
  TEAE: Injection site extravasation: 0 n/E
  TEAE: Injection site hemorrhage: 0 n/E
  TEAE: Injection site injury: 0 n/E
  TEAE: Injection site pain: 0 n/E
  TEAE: Medical device site erythema (erythema at the ECG patch sites): 0 n/E
  TEAE: Nausea: 0 n/E
  TEAE: Phlebitis: 0 n/E
  TEAE: Scratch: 0 n/E
  TEAE: Vessel puncture site hemorrhage: 0 n/E
  Withdrawn due to AE: 0 n
  ≥1 TEAE: 4/8
  ≥1 drug-related TEAE: 2/2
  ≥1 serious TEAE: 0 n
[1]; MAD parts 1 and 2, 2,000 mg
  TEAE: Catheter site pain: 0 n/E
  TEAE: Diarrhea: 0 n/E
  TEAE: Ecchymosis: 0 n/E
  TEAE: Headache: 0 n/E
  TEAE: Infusion site extravasation: 0 n/E
  TEAE: Injection site erythema: 0 n/E
  TEAE: Injection site extravasation: 1/1
  TEAE: Injection site hemorrhage: 0 n/E
  TEAE: Injection site injury: 0 n/E
  TEAE: Injection site pain: 0 n/E
  TEAE: Medical device site erythema (erythema at the ECG patch sites): 0 n/E
  TEAE: Nausea: 0 n/E
  TEAE: Phlebitis: 0 n/E
  TEAE: Scratch: 0 n/E
  TEAE: Vessel puncture site hemorrhage: 0 n/E
  Withdrawn due to AE: 0 n
  ≥1 TEAE: 2/3
  ≥1 drug-related TEAE: 2/2
  ≥1 serious TEAE: 0 n
[1]; MAD parts 1 and 2, 4,000 mg
  TEAE: Catheter site pain: 0 n/E
  TEAE: Diarrhea: 0 n/E
  TEAE: Ecchymosis: 0 n/E
  TEAE: Headache: 1/1
  TEAE: Infusion site extravasation: 0 n/E
  TEAE: Injection site erythema: 1/1
  TEAE: Injection site extravasation: 1/1
  TEAE: Injection site hemorrhage: 2/2
  TEAE: Injection site injury: 2/2
  TEAE: Injection site pain: 3/3
  TEAE: Medical device site erythema (erythema at the ECG patch sites): 4/4
  TEAE: Nausea: 0 n/E
  TEAE: Phlebitis: 0 n/E
  TEAE: Scratch: 1/1
  TEAE: Vessel puncture site hemorrhage: 2/2
  Withdrawn due to AE: 0 n
  ≥1 TEAE: 6/36
  ≥1 drug-related TEAE: 3/3
  ≥1 serious TEAE: 0 n
[1]; [5]
  TEAE: Catheter site pain: 0 n/E
  TEAE: Diarrhea: 0 n/E
  TEAE: Ecchymosis: 0 n/E
  TEAE: Headache: 0 n/E
  TEAE: Infusion site extravasation: 0 n/E
  TEAE: Injection site erythema: 0 n/E
  TEAE: Injection site extravasation: 0 n/E
  TEAE: Injection site hemorrhage: 0 n/E
  TEAE: Injection site injury: 0 n/E
  TEAE: Injection site pain: 0 n/E
  TEAE: Medical device site erythema (erythema at the ECG patch sites): 0 n/E
  TEAE: Nausea: 0 n/E
  TEAE: Phlebitis: 0 n/E
  TEAE: Scratch: 0 n/E
  TEAE: Vessel puncture site hemorrhage: 0 n/E
  Withdrawn due to AE: 0 n
  ≥1 TEAE: 1/1
  ≥1 drug-related TEAE: 0 n/E
  ≥1 serious TEAE: 0 n
[1]; all single doses up to 8,000 mg and multiple doses up to 4,000 mg q8h
  tolerability: well tolerated
[1]; alone (50 to 8,000 mg) or coadministered with meropenem (2,000 mg each), both studies
  serious AEs: no serious AEs were reported
[1]; nacubactam alone, validated measures of renal function and exploratory urine kidney biomarkers
  effect on kidney function: no significant effects on kidney function
[2]; 90% CI, 3.8879 to 1.9931, P = 0.59
  treatment estimate, linear model of change in QTcF vs plasma concentration: 0.9474
[2]; P = 0.73
  slope estimate, linear model of change in QTcF vs plasma concentration: 0.00422
[2]; at the Cmax of 325 μg/ml, each of the three models
  upper limit of the two-sided 90% CI of predicted change from baseline in QTcF: < 10 ms
[2]; at the Cmax of 325 μg/ml, each of the three models (linear, quadratic, log-linear)
  predicted mean change from baseline in QTcF: < 3 ms
[2]; nacubactam alone, intensive ECG monitoring
  effect on QTc interval duration, other ECG intervals, or ECG morphology: did not reveal any significant effects
[3]; 0.85 to 1.07
  CLR GMR, monotherapy vs combination with meropenem: 0.95
[3]; 0.87 to 1.11
  Vss GMR, monotherapy vs combination with meropenem: 0.98
[4]
  fraction unbound: 0.98
  protein binding: 2%
